For one data set, the system named is C. reinhardtii. Description: Growth inhibition of C. reinhardtii by hydrazones and isolated metal-hydrazone complexes, TAP Cu minus medium (Example 12). It counts as cell-based, Chlamydomonas reinhardtii. As to conditions: for inhibition of growth at 1 µg/mL: Chlamydomonas reinhardtii, parent hydrazone 1 μg/mL, read-out: Hydrazone % Inhn.; for Complex % Inhn.: isolated metal complex 1 μg/mL. On the procedure: In vitro toxicity assays against C. reinhardtii CC-1928 (wild type mt+137c green in dark subclone) obtained from the Chlamydomonas Resource Center at Duke University were conducted using TAP liquid growth medium described by Gorman and Levine Proc. Natl. Acad. Sci. USA 1965, 54, 1665-1669 except that CuSO4.5H2O, normally included as a component of Hutner's trace element stock solution (Hutner et al. Proc. Am. Philos. Soc. 1950, 94, 152-170), was omitted. The TAP medium lacking Cu (TAP Cu minus) was prepared by adding 400 mg NH4Cl, 10 mL of 100× Tris-Acetate (242 g Tris-base and 100 mL glacial acetic acid in 1000 mL milli Q water), and 8.3 mL of 120.5× phosphate buffer (14.34 g K2HPO4 and 7.26 g KH2PO4 in 1000 mL milli Q water) to milli Q water to make a total volume of 1 liter. The medium was treated with 0.5 g Chelex 100 resin (Bio-Rad Analytical grade, 50-100 mesh, sodium form, cat#142-2822) by stirring at room temperature for 1 hour. 900 mL were decanted and 45.9 mg of CaCl2.2H2O, 90 mg of MgSO4.7H2O and 0.9 mL Hutner's trace elements lacking CuSO4.5H2O were added and the solution was filter-sterilized. Medium containing copper (TAP Cu plus) was prepared by adding CuCl2.2H2O to the TAP Cu minus medium at 20 μM. Test compounds were dissolved in dimethylsulfoxide (DMSO) at 2 mg/mL then dilutions in TAP Cu minus and TAP Cu plus media were prepared in sterilized microcentrifuge tubes at 2 μg/mL. 100 μL aliquots of diluted compound were dispensed into flat-bottomed 96-well microtiter plates. C. reinhardtii was maintained under 12 h of light on TAP agar plates at 18° C. A loopful of cells was added to 50 mL of TAP Cu minus medium and the culture incubated with shaking at 200 rpm at 27° C. for 24 h. The culture (10 to 20 mL aliquot) was centrifuged in a bench centrifuge at 2000 rpm for 2 min. The resulting cell pellet was resuspended in 5 mL sterile milli Q water (which had been treated with Chelex 100 resin using 0.5 g resin per liter of water by stirring at room temperature for 1 h), and recentrifuged. The cells were resuspended in TAP Cu minus medium, and the suspension adjusted to 2×10^5 spores per mL. Microtiter plates containing compounds as described above were inoculated with 100 μL of this cell suspension and the plates incubated at 27° C. for 48 h before assessing algal growth by measuring light scattering in a NepheloStar plate-reader. Growth inhibition was determined by comparing growth in the presence of test compound with growth in control wells lacking test compound. Hydrazones and their isolated metal complexes were compared with respect to their in vitro activity toward C. reinhardtii and the cyanobacterium (blue-green alga) Synechocystis sp. strain 6803. Metal complexes of hydrazones were prepared by precipitation from ethanol with various metal salts at 1:1, 2:1 or 3:1 molar ratios, as described in general by Ainscough, Brodie, Dobbs, Ranford, and Waters (Inorganica Chimica Acta 1998, 267, 27-38, which is expressly incorporated by reference herein). In vitro assays against C. reinhardtii were conducted as described in Example 10 using TAP Cu minus medium. Growth inhibition was determined by comparing growth in the presence of test compound with growth in control wells lacking test compound. Results for growth inhibition of C. reinhardtii by hydrazones and corresponding isolated metal complexes (each at 1 μg/mL) are shown in Table 6.

Data set [1] relates to Synechocystis sp. strain 6803. Description: Effect of copper on activity of hydrazones: in vitro growth inhibition of Synechocystis in BG-11 Cu minus / Cu plus medium (Example 11). It counts as cell-based. As to conditions: for inhibition of growth at 0.05 µg/mL / inhibition of growth at 0.0125 µg/mL / inhibition of growth at 0.00625 µg/mL: Synechocystis, BG-11 Cu minus medium, read-out: % Inhn. Minus Copper Observed; for inhibition of growth at 0.05 µg/mL / % Inhn. Plus Copper Observed / inhibition of growth at 0.0125 µg/mL / inhibition of growth at 0.00625 µg/mL: 72 h; for % Inhn. Plus Copper Observed: BG-11 Cu plus medium. Summed up: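 Synechocystis sp. 6803 in Chelex-treated, copper-free BG-11 (pH 7.1) or the same medium plus 0.2 μM CuCl2, inoculated from a 4×10^5/mL suspension. Growth after 72 h at 27 °C was measured by light scattering and expressed as % inhibition versus compound-free wells. Copper-plus results were compared with Colby-predicted values.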

24 compounds from patent US8906829B2, “Synergistic algicidal compositions including hydrazone derivatives and copper” (Dow AgroSciences LLC, priority 2010, dated 2014) can be followed below.

By melting point is commonly meant the temperature, or range, at which the solid turns liquid.

`O=C(N/N=C/c1cc(Cl)cc(Cl)c1O)c1ccccc1` [Compound 1]: the inhibition of growth at 1 µg/mL with C. reinhardtii stood at 16%. Also, in data set [1] (Test Concn. 0.05 μg/mL), the inhibition of growth at 0.05 µg/mL worked out at 29% and the “% Inhn. Plus Copper Observed” value came out at 91%.

Turning to `C/C(=N\NC(=O)c1ccccc1)c1cc(Cl)cc(Cl)c1O` [Compound 6], in the data set on C. reinhardtii, the inhibition of growth at 1 µg/mL was 13%. Further, in data set [1] (Test Concn. 0.05 μg/mL), the inhibition of growth at 0.05 µg/mL stood at 19% and the “% Inhn. Plus Copper Observed” value is on record as 99%.

Turning to `O=C(N/N=C/c1cc(Cl)cc(Cl)c1O)c1ccccc1O` [Compound 7], the inhibition of growth at 1 µg/mL with C. reinhardtii was determined as 29%. In data set [1] (Test Concn. 0.05 μg/mL), the inhibition of growth at 0.05 µg/mL came to 22% and the “% Inhn. Plus Copper Observed” value stood at 96%.

Consider `C/C(=N\NC(=O)c1ccc(Cl)cc1)c1cc(Cl)cc(Cl)c1O` [Compound 12], for which the melting point fell in the range of 260 to 262 °C. In addition, the inhibition of growth at 1 µg/mL in the data set with C. reinhardtii was determined as 4%. Further, in data set [1] (Test Concn. 0.0125 μg/mL), the inhibition of growth at 0.0125 µg/mL was determined as 21% and the “% Inhn. Plus Copper Observed” value is 82%.

Turning to `O=C(N/N=C/c1cc(Cl)cc(Br)c1O)c1ccccc1` [Compound 14], the inhibition of growth at 1 µg/mL with C. reinhardtii was found to be 6%. Further, in data set [1] (Test Concn. 0.05 μg/mL), the inhibition of growth at 0.05 µg/mL is 50% and the “% Inhn. Plus Copper Observed” value was found to be 97%.

For the compound `O=C(N/N=C/c1cc(Cl)cc(Br)c1O)c1ccc(Cl)cc1` [Compound 15], in the data set with C. reinhardtii, the inhibition of growth at 1 µg/mL came out at 11%. Also, in data set [1] (Test Concn. 0.00625 μg/mL), the inhibition of growth at 0.00625 µg/mL came out at 15% and the “% Inhn. Plus Copper Observed” value stood at 74%.

Turning to `O=C(N/N=C/c1cc(Cl)cc(Br)c1O)c1ccccc1O` [Compound 18], the inhibition of growth at 1 µg/mL in the data set on C. reinhardtii came out at 13%. Moreover, in data set [1] (Test Concn. 0.0125 μg/mL), the inhibition of growth at 0.0125 µg/mL turned out to be 47% and the “% Inhn. Plus Copper Observed” value was 86%.

Turning to `O=C(N/N=C/c1ccc(Cl)c(Cl)c1O)c1ccccc1` [Compound 21], the melting point lay in the range of 249 to 252 °C. The inhibition of growth at 1 µg/mL in the data set on C. reinhardtii turned out to be 6%. For the same compound, in data set [1] (Test Concn. 0.0125 μg/mL), the inhibition of growth at 0.0125 µg/mL turned out to be 39% and the “% Inhn. Plus Copper Observed” value was 96%.

`C/C(=N\NC(=O)c1cccc(C)c1)c1cc(Cl)cc(Cl)c1O` [Compound 25, 3-methyl-benzoic acid [1-(3,5-dichloro-2-hydroxyphenyl)-ethylidene]-hydrazide] returned a melting point of 221 to 223 °C. The inhibition of growth at 1 µg/mL in the data set on C. reinhardtii came out at 33%. For the same compound, in data set [1] (Test Concn. 0.05 μg/mL), the inhibition of growth at 0.05 µg/mL was found to be 18% and the “% Inhn. Plus Copper Observed” value is reported as 92%.

Consider `C/C(=N\NC(=O)c1ccc(C)cc1)c1cc(Cl)cc(Cl)c1O` [Compound 26], for which the melting point lay within 262 to 264 °C. In addition, in data set [1] (Test Concn. 0.05 μg/mL), the inhibition of growth at 0.05 µg/mL is 54% and the “% Inhn. Plus Copper Observed” value amounted to 95%.

`O=C(N/N=C/c1cc(Cl)cc(C(F)(F)F)c1O)c1ccccc1` [Compound 27] gave a melting point of 225 to 226 °C. The inhibition of growth at 1 µg/mL with C. reinhardtii is 30%. Also, in data set [1] (Test Concn. 0.05 μg/mL), the inhibition of growth at 0.05 µg/mL is 31% and the “% Inhn. Plus Copper Observed” value worked out at 95%.

Regarding `O=C(N/N=C/c1cc(C(F)(F)F)cc(C(F)(F)F)c1O)c1ccc(Cl)cc1` [Compound 32], the melting point lay in the range of 233 to 236 °C. In the data set on C. reinhardtii, the inhibition of growth at 1 µg/mL was found to be 21%. Further, in data set [1] (Test Concn. 0.05 μg/mL), the inhibition of growth at 0.05 µg/mL was determined as 26% and the “% Inhn. Plus Copper Observed” value stood at 91%.

Consider `O=C(N/N=C/c1c(Cl)ccc(Cl)c1O)c1ccc(Cl)cc1` [Compound 45], for which the melting point lay in the range of 271 to 273 °C. Further, the inhibition of growth at 1 µg/mL with C. reinhardtii is 9%. Besides, in data set [1] (Test Concn. 0.00625 μg/mL), the inhibition of growth at 0.00625 µg/mL stood at 33% and the “% Inhn. Plus Copper Observed” value came to 78%.

`O=C(N/N=C/c1cccc(Cl)c1O)c1ccc(Cl)cc1` [Compound 52] displayed a melting point of 257 to 260 °C. In addition, the inhibition of growth at 1 µg/mL in the data set on C. reinhardtii was -4%. In addition, in data set [1] (Test Concn. 0.0125 μg/mL), the inhibition of growth at 0.0125 µg/mL was found to be 8% and the “% Inhn. Plus Copper Observed” value was found to be 90%.

The compound `O=C(N/N=C/c1c(C(F)(F)F)ccc(Cl)c1O)c1ccc(Cl)cc1` [Compound 56] showed a melting point of 236 to 238 °C. In the data set with C. reinhardtii, the inhibition of growth at 1 µg/mL amounted to 11%. Further, in data set [1] (Test Concn. 0.0125 μg/mL), the inhibition of growth at 0.0125 µg/mL amounted to 28% and the “% Inhn. Plus Copper Observed” value was determined as 75%.

As for `Cc1ccccc1C(=O)N/N=C/c1cc(Cl)cc(Cl)c1O` [Compound 63], the inhibition of growth at 1 µg/mL with C. reinhardtii is -18%. In data set [1] (Test Concn. 0.05 μg/mL), the inhibition of growth at 0.05 µg/mL was found to be 37% and the “% Inhn. Plus Copper Observed” value was 94%.

As for `CC(=O)[O-].CC(=O)[O-].O=C(N/N=C/c1cc(Cl)cc(Cl)c1O)c1ccccc1.[Cu+2]` [Compound 72], the “Complex % Inhn.” value in the data set with C. reinhardtii came out at 96%.

Turning to `CC(=O)[O-].CC(=O)[O-].O=C(N/N=C/c1cc(Cl)cc(Cl)c1O)c1ccccc1.O=C(N/N=C/c1cc(Cl)cc(Cl)c1O)c1ccccc1.[Cu+2]` [Compound 73], in the data set on C. reinhardtii, the “Complex % Inhn.” value was determined as 96%.

For the compound `O=C(N/N=C/c1cc(Cl)cc(Cl)c1O)c1ccccc1.O=C(N/N=C/c1cc(Cl)cc(Cl)c1O)c1ccccc1.O=S(=O)([O-])[O-].[Cu+2]` [Compound 74], in the data set on C. reinhardtii, the “Complex % Inhn.” value amounted to 96%.

For `O=C(N/N=C/c1cc(Cl)cc(Cl)c1O)c1ccccc1.[Cl-].[Cl-].[Cu+2]` [Compound 75], the “Complex % Inhn.” value in the data set with C. reinhardtii was 95%.

For the compound `O=C(N/N=C/c1cc(Cl)cc(Cl)c1O)c1ccccc1.O=C(N/N=C/c1cc(Cl)cc(Cl)c1O)c1ccccc1.[Cl-].[Cl-].[Cu+2]` [Compound 76], the “Complex % Inhn.” value in the data set with C. reinhardtii was 75%.

For the compound `O=C(N/N=C/c1cc(Cl)cc(Cl)c1O)c1ccccc1.O=C(N/N=C/c1cc(Cl)cc(Cl)c1O)c1ccccc1.[Cl-].[Cl-].[Mn+2]` [Compound 77], the “Complex % Inhn.” value in the data set on C. reinhardtii is −1%.

Turning to `O=C(NN=Cc1cc(Cl)cc(Cl)c1O)c1ccccc1.O=C(NN=Cc1cc(Cl)cc(Cl)c1O)c1ccccc1.[Cl-].[Cl-].[Zn+2]` [Compound 78], the “Complex % Inhn.” value with C. reinhardtii is on record as −5%.

Consider `[Cl][Cu][Cl]` [CuCl2, Copper chloride, reference compound], for which the “% Inhn. by copper chloride alone” value in data set [1] (CuCl2, 10 μM (so in the source), copper-plus vs copper-minus medium without test compound, across experiments) was 7.0 ± 4.6%.
